# Several values for one entry are separate records, joined by “and”; a condition that tells them apart may be missing. Identical values can stand only once. Like-named read-outs stand apart in the source and are kept apart here.
# Experiments:
# [1] = Preliminary acute toxicity test in mice; format: in vivo; settings: groups of two male NMRI mice
# Protocol: A preliminary acute toxicity test was carried out in mice. Groups of two male mice of the NMRI strain weighing 20-21 g received the test compound in doses of 62.5-500 mg/kg ip. The compound was given as a solution in 0.9% NaCl. The number of animals dead 24 hours after injection was as follows.
# [2] = Acid stability test in 0.1 N HCl (t.l.c. estimate of decomposition products); format: physicochemical; settings: incubated in 0.1 N HCl at 37° C. for 2 hours; 100 μg compound applied
# Protocol: The acid stability was investigated by dissolving 5 mg of each compound in 1 ml of 0.1 N HCl in a test tube. For use as references 0.2 ml of each solution was withdrawn, immediately treated with 0.2 ml of a 10% aqueous solution of NaHCO3 and frozen. The remaining 0.8 ml of each solution was incubated at 37° C. for 2 hours. After incubation, 0.8 ml of a 10% aqueous solution of NaHCO3 was added to each solution and the solutions were frozen. The incubated compounds and the reference compounds were lyophilized to dryness and redissolved in distilled H2 O, 0.2 ml and 1.0 ml respectively, for each reference solution and incubated solution. The solutions were applied to silica gel (Merck PF254, 20×20 cm) and polyethylene imine (Macherey-Nagel PEI, 20×20 cm) thin layer plates. A total of 20 μl of the reference solutions (100 μg compound) and 25 μl of the incubated solutions ([…]) were applied. To each plate was also added, as references, solutions of phosphorous acid (H2 HPO3) (5 and 20 μg) and of trisodiumphosphonoformate (5 and 20 μg). (Decomposition of phosphonoformic acid at low pH produces phosphorous acid).
# The silica gel plates were prepared in duplicate and eluted with a solution composed of methanol--10% aq ammonia--trichloroacetic acid--water (50--15--5--3, v/v) and the polyethylene imine plates were eluted with a 1M aq lithium chloride solution. […]
# [3] = test system: influenza (WSN Wilson Smith Neurotropic type A); test: Inhibition of influenza WSN plaque on MDCK monolayers; format: cell-based, influenza virus
# [4] = test system: cutaneous herpes simplex type 1 infections; test: Inhibition of cutaneous herpes on guinea pigs; format: in vivo, guinea pig; settings: scale 0 to 3
# Description: The effect of cutaneous herpes simplex type 1 infections have been measured in a guinea pig model described by Hubler et al. J. Invest Dermatol 69 (1974) 92. […] The appearance of an infected treated area and a similar infected untreated (only isopropanol-glycerol-water) area was scored daily on a scale from 0 to 3. The total effect is judged from the score at day 5.
# herpes simplex type 1 = test: Plaque reduction assay for herpes simplex type 1 on GMK monolayers; format: cell-based; settings: for inhibition at 400 µM: Human alphaherpesvirus 1, 400 μM test compound; for inhibition at 500 µM: Human alphaherpesvirus 1, 500 μM test compound
# Protocol: The plaque reduction assay for herpes simplex type 1 was performed on GMK (Green Monkey Kidney) cells as described by Ejereito et al. J. Gen. Virol. 2 (1968) 357. Monolayers on 5 cm petri dishes were used and after virus adsorption the test compound was added in the medium.
# The plaque reduction assay for herpes simplex type 1 was performed on GMK (Green Monkey Kidney) cells as described by Ejereito et al. J. Gen. Virol 2 (1968) 357. Monolayers on 5 cm petri dishes were used and after virus adsorption the test compound was added in the medium.
# Inhibition of herpes simplex type 1 plaque on GMK monolayers
# influenza Victoria = test: Inhibition of influenza Victoria plaque on MDCK monolayers; format: cell-based, influenza virus
# [5] = topical 2% solution, start of treatment 24 hours after infection
# [6] = treated in 0.1% Tween 80-10% aqueous glycerol
# [7] = topical 2% solution in isopropanol-glycerol-water twice daily for 3 days starting 4 hours after infection
# [8] = treated in 0.1% Tween 80-10% aqueous glycerol, start of treatment 24 hours after infection
# [9] = Day 1, 10 μmol intraperitoneally, urine of two NMRI male mice
# [10] = Day 2, 10 μmol intraperitoneally, urine of two NMRI male mice
# [11] = Day 3, 10 μmol intraperitoneally, urine of two NMRI male mice
structure (smiles),measurement,setting,value
O=C(Oc1ccccc1)P(=O)(O)Oc1ccccc1,number of animals dead 24 hours after injection,[1]; 62.5 mg/kg ip,0/2
same,number of animals dead 24 hours after injection,[1]; 125 mg/kg ip,0/2
same,number of animals dead 24 hours after injection,[1]; 250 mg/kg ip,0/2
same,number of animals dead 24 hours after injection,[1]; 500 mg/kg ip,0/2
"O=C(O)P(=O)(O)O [EHB 776, trisodium phosphonoformate]",Estimated formation of phosphorous acid,[2],20 µg
"O=C(Oc1ccccc1)P(=O)(Oc1ccccc1)Oc1ccccc1 [VIS 040, Hydroxycarbonylphosphonic Acid Triphenyl Ester]",Inhibition (%),[3]; 100 μM test compound,90%
same,Inhibition (%),[3]; 500 μM test compound,> 99%
same,"Score at day 5, treated",[4]; [5],0
"O=C(O)P(=O)(O)Oc1ccccc1 [VIS 041, Phenyl disodium oxycarbonylphosphonate]",Inhibition (%),herpes simplex type 1; 10 μM test compound,~ 50%
same,Inhibition (%),herpes simplex type 1; 40 μM test compound,> 90%
same,Inhibition (%),"herpes simplex type 1; 100 μM test compound, 100 µM",> 99.9% and 99%
same,Inhibition (%),herpes simplex type 1; 500 μM test compound,> 99.9%
same,Inhibition (%),[3]; 500 μM test compound,> 99.9%
same,"Score at day 5, treated",[4]; [5],0
"O=C(Oc1ccccc1)P(=O)([O-])Oc1ccccc1.[Na+] [VIS 043, Sodium phenyl phenoxycarbonylphosphonate]",Inhibition (%),herpes simplex type 1; 20 μM test compound,~ 0%
same,Inhibition (%),herpes simplex type 1; 40 μM test compound,> 90.9%
same,Inhibition (%),"herpes simplex type 1; 100 μM test compound, 100 µM",> 99.9% and > 99%
same,Inhibition (%),herpes simplex type 1; 500 μM test compound,> 99.9%
same,Inhibition (%),"[3]; 20 μM test compound, 20 µM",62% and 47%
same,Inhibition (%),"[3]; 100 μM test compound, 100 µM",84% and 90% and > 99.9%
same,Inhibition (%),[3]; 500 μM test compound,> 99.9%
same,"Score at day 5, treated",[4]; [5],0
"Cc1ccc(OP(=O)(Oc2ccc(C)cc2)C(=O)Oc2ccccc2)cc1 [VIS 056, Di-p-tolyl phenoxycarbonylphosphonate]",Inhibition (%),herpes simplex type 1; 100 μM test compound,> 99%
same,Inhibition (%),herpes simplex type 1; 500 μM test compound,> 99%
same,Inhibition (%),influenza Victoria; 200 μM test compound,75%
"COc1ccc(OP(=O)([O-])C(=O)Oc2ccccc2)cc1.[Na+] [VIS 058, Sodium p-methoxyphenyl phenoxycarbonylphosphonate]",Inhibition (%),herpes simplex type 1; 10 μM test compound,~ 50%
same,Inhibition (%),herpes simplex type 1; 40 μM test compound,> 90%
same,Inhibition (%),herpes simplex type 1; 100 μM test compound,88%
same,Inhibition (%),herpes simplex type 1; 500 μM test compound,> 99.9%
same,Inhibition (%),[3]; 100 μM test compound,84%
same,Inhibition (%),[3]; 500 μM test compound,> 99.9%
"Cc1ccc(OP(=O)(O)C(=O)O)cc1 [VIS 059, p-tolyl disodium oxycarbonylphosphonate]",Inhibition (%),"herpes simplex type 1; 5 μM test compound, 5 µM",57% and > 90%
same,Inhibition (%),herpes simplex type 1; 20 μM test compound,95%
same,Inhibition (%),herpes simplex type 1; 100 μM test compound,> 99.9%
same,Inhibition (%),herpes simplex type 1; 500 μM test compound,> 99.9%
same,Inhibition (%),"[3]; 20 μM test compound, 20 µM",58% and 36%
same,Inhibition (%),"[3]; 500 μM test compound, 500 µM",> 99.9% and 91% and 92%
same,"Score at day 5, treated",[4]; [6],1 and 2
"O=C(Oc1ccccc1)P(=O)([O-])Oc1ccc(Cl)cc1.[Na+] [VIS 063, sodium p-chlorophenyl phenoxycarbonylphosphonate]",Inhibition (%),herpes simplex type 1; 5 μM test compound,~ 50%
same,Inhibition (%),herpes simplex type 1; 10 μM test compound,> 90%
same,Inhibition (%),herpes simplex type 1; 20 μM test compound,69%
same,Inhibition (%),herpes simplex type 1; 100 μM test compound,> 99.9%
same,Inhibition (%),herpes simplex type 1; 500 μM test compound,> 99.9%
same,Inhibition (%),[3]; 100 μM test compound,72%
same,Inhibition (%),[3]; 500 μM test compound,> 99.9%
same,"Score at day 5, treated",[4]; [7],2 and 3
"Cc1ccc(OP(=O)([O-])C(=O)Oc2ccccc2)cc1.[Na+] [VIS 065, sodium p-tolyl phenoxycarbonylphosphonate]",Inhibition (%),herpes simplex type 1; 10 μM test compound,~ 50%
same,Inhibition (%),herpes simplex type 1; 20 μM test compound,> 90%
same,Inhibition (%),influenza Victoria; 200 μM test compound,76%
same,Inhibition (%),influenza Victoria; 500 μM test compound,> 99%
"O=C(O)P(=O)(O)Oc1ccc(Cl)cc1 [VIS 066, p-chlorophenyl disodium oxycarbonylphosphonate]",Inhibition (%),"herpes simplex type 1; 5 μM test compound, 5 µM",89% and ~ 75%
same,Inhibition (%),herpes simplex type 1; 10 μM test compound,> 90%
same,Inhibition (%),herpes simplex type 1; 20 μM test compound,98%
same,Inhibition (%),herpes simplex type 1; 100 μM test compound,> 99.9%
same,Inhibition (%),herpes simplex type 1; 500 μM test compound,> 99.9%
same,Inhibition (%),[3]; 100 μM test compound,54%
same,Inhibition (%),[3]; 500 μM test compound,> 99.9%
"COc1ccc(OP(=O)(O)C(=O)O)cc1 [VIS 067, p-Methoxyphenyl disodium oxycarbonylphosphonate]",Inhibition (%),herpes simplex type 1; 5 μM test compound,57%
same,Inhibition (%),herpes simplex type 1; 20 μM test compound,87%
same,Inhibition (%),herpes simplex type 1; 100 μM test compound,99%
same,Inhibition (%),herpes simplex type 1; 500 μM test compound,> 99.9%
same,Inhibition (%),[3]; 100 μM test compound,58%
same,Inhibition (%),"[3]; 500 μM test compound, 500 µM",73% and > 99.9%
same,"Score at day 5, treated",[4]; [6],1
"Cc1ccc(OC(=O)P(=O)([O-])[O-])cc1.[Na+].[Na+] [VIS 130, Disodium p-tolyloxycarbonylphosphonate]",inhibition at 200 µM,"herpes simplex type 1; Human alphaherpesvirus 1, 200 μM test compound",~80%
same,inhibition at 400 µM,herpes simplex type 1,> 90%
same,"Score at day 5, treated",[4]; [8],1
"O=C(Oc1ccc(Cl)c(Cl)c1)P(=O)(O)O [VIS 135, Disodium 3,4-dichlorophenoxycarbonylphosphonate]",inhibition at 100 µM,"herpes simplex type 1; Human alphaherpesvirus 1, 100 μM test compound",85%
"O=C(Oc1ccc(Cl)cc1)P(=O)([O-])[O-].[Na+].[Na+] [VIS 238, Disodium p-chlorophenoxycarbonylphosphonate]",Inhibition (%),"herpes simplex type 1; 100 μM test compound, 100 µM",52% and ~ 90%
same,Inhibition (%),"herpes simplex type 1; 500 μM test compound, 500 µM",99%
same,inhibition at 500 µM,herpes simplex type 1,96%
same,"Score at day 5, treated",[4]; [8],1
"COc1ccc(OC(=O)P(=O)([O-])[O-])cc1.[Na+].[Na+] [VIS 239, Disodium p-methoxyphenoxycarbonylphosphonate]",Inhibition (%),"herpes simplex type 1; 500 μM test compound, 500 µM",36% and 52% and 70%
same,inhibition at 400 µM,herpes simplex type 1,~60%
same,inhibition at 600 µM,"herpes simplex type 1; Human alphaherpesvirus 1, 600 μM test compound",> 90%
same,"Score at day 5, treated",[4]; [8],1
"CCOC(=O)c1ccc(OC(=O)P(=O)([O-])[O-])cc1.[Na+].[Na+] [VIS 242, Disodium p-(ethoxycarbonyl)phenoxycarbonylphosphonate]","Score at day 5, treated",[4]; [8],1
"O=C(Oc1ccccc1)P(=O)([O-])[O-].[Na+].[Na+] [VIS 412, Disodium phenoxycarbonylphosphonate]",Inhibition (%),"herpes simplex type 1; 500 μM test compound, 500 µM",88%
same,inhibition at 60 µM,"herpes simplex type 1; Human alphaherpesvirus 1, 60 μM test compound",~50%
same,inhibition at 500 µM,herpes simplex type 1,80%
same,"Score at day 5, treated",[4]; [7],0
same,"Score at day 5, treated",[4]; [5],0
"O=C(O)P(=O)(O)Oc1ccc2c(c1)CCC2 [VIS 442, 5-Indanyl disodium oxycarbonylphosphonate]",Inhibition (%),herpes simplex type 1; 10 μM test compound,> 90%
same,Inhibition (%),herpes simplex type 1; 500 μM test compound,> 99.9%
same,Inhibition (%),[3]; 500 μM test compound,94%
same,"Score at day 5, treated",[4]; [8],1
Cc1ccc(OC(=O)P(=O)(O)O)cc1 [drawing 119],Recovered phosphonoformic acid activity in urine,[9],1.25 μmol phosphonoformic acid
same,Recovered phosphonoformic acid activity in urine,[10],0.25 μmol phosphonoformic acid
same,Recovered phosphonoformic acid activity in urine,[11],0.10 μmol phosphonoformic acid
O=C(O)P(=O)(O)Oc1ccccc1 [drawing 120],Recovered phosphonoformic acid activity in urine,[9],1.00 μmol phosphonoformic acid
same,Recovered phosphonoformic acid activity in urine,[10],0.25 μmol phosphonoformic acid
same,Recovered phosphonoformic acid activity in urine,[11],0.25 μmol phosphonoformic acid
"O=C(O)P(=O)(O)O [drawing 121, reference compound]",Recovered phosphonoformic acid activity in urine,"mouse, in vivo, ip",1.25 μmol phosphonoformic acid
O=C(Oc1ccccc1)P(=O)(O)O [drawing 123],number of animals dead 24 hours after injection,[1]; 62.5 mg/kg ip,0/2
same,number of animals dead 24 hours after injection,[1]; 125 mg/kg ip,0/2
same,number of animals dead 24 hours after injection,[1]; 250 mg/kg ip,0/2
same,number of animals dead 24 hours after injection,[1]; 500 mg/kg ip,0/2
O=C(O)P(=O)(O)Oc1ccccc1 [drawing 125],number of animals dead 24 hours after injection,[1]; 62.5 mg/kg ip,0/2
same,number of animals dead 24 hours after injection,[1]; 125 mg/kg ip,0/2
same,number of animals dead 24 hours after injection,[1]; 250 mg/kg ip,0/2
same,number of animals dead 24 hours after injection,[1]; 500 mg/kg ip,0/2

# Source: patent publication US4536400A, “Phosphonoformic acid esters” (priority 1977, dated 1985)
